Test system: HCV 1b genotype
Test: microbe, parasite or virus in culture
Type: cell-based, Hepatitis C virus
Conditions: HCV 1b replicon; read-out: Range: EC50 ranges against HCV 1b
Method: An HCV Replicon assay was utilized in the present disclosure, and was prepared, conducted and validated as described in commonly owned PCT/US2006/022197 and in O'Boyle et. al. Antimicrob Agents Chemother. 2005 April; 49(4):1346-53. Assay methods incorporating luciferase reporters have also been used as described (Apath.com).
HCV-neo replicon cells and replicon cells containing resistance substitutions in the NS5A region were used to test the currently described family of compounds.

Compound	EC50
COC(=O)NC(C(=O)N1C(c2nc(-c3ccc(-c4ccc(-c5c[nH]c([C@@H]6CC[C@H](C)N6C(=O)C(NC(=O)OC)C6CCC7(CC7)OC6)n5)cc4)cc3)c[nH]2)CC[C@@H]1C)C1CCC2(CC2)OC1 (stereo partly drawn) [Example 1.2]	0.00501 to 0.1 nM
COC(=O)NC(C(=O)N1C[C@@H](C)C[C@H]1c1nc2cc(C#Cc3ccc4c(ccc5nc([C@@H]6C[C@H](C)CN6C(=O)C(NC(=O)OC)C6CCOC7(CC7)C6)[nH]c54)c3)ccc2[nH]1)C1CCOC2(CC2)C1 (stereo partly drawn) [QC9]	0.00501 to 0.1 nM
dimethyl (1H,1′H-7,7′-binaphtho[1,2-d]imidazole-2,2′-diylbis((2S)-2,1-pyrrolidinediyl(1-(4-oxaspiro[2.5]oct-7-yl)-2-oxo-2,1-ethanediyl)))biscarbamate [QC13]	0.00501 to 0.1 nM

Same assay, conditions: Hepatitis C virus, HCV 1b replicon; read-out: 1b (μM): EC50 (Effective 50% inhibitory concentration) against the HCV 1b genotype

Compound	EC50
C#C[C@@H]1CC[C@@H](c2ncc(-c3ccc(-c4ccc(-c5cnc([C@@H]6CC[C@@H](C#C)N6C(=O)[C@@H](NC(=O)OC)C6C[C@@H](C)O[C@H](C)C6)[nH]5)cc4)cc3)[nH]2)N1C(=O)[C@@H](NC(=O)OC)C1C[C@@H](C)O[C@H](C)C1 (stereo partly drawn) [Example 10.1, dimethyl (4,4′-biphenyldiylbis(1H-imidazole-4,2-diyl((2S,5S)-5-ethynyl-2,1-pyrrolidinediyl)((1S)-1-((2R,6R)-2,6-dimethyltetrahydro-2H-pyran-4-yl)-2-oxo-2,1-ethanediyl)))biscarbamate]	0.263 nM

Same assay, conditions: Hepatitis C virus, HCV 1b replicon; read-out: Range: EC50 ranges against HCV 1b

Compound	EC50
COC(=O)NC(C(=O)N1[C@@H]2C[C@@H]2C[C@H]1c1ncc(-c2ccc(-c3ccc(-c4cnc([C@@H]5C[C@H]6C[C@H]6N5C(=O)[C@@H](NC(=O)OC)C(C)C)[nH]4)cc3)cc2)[nH]1)C1CCOC2(CC2)C1 (stereo partly drawn) [OL3, methyl ((2S)-1-((1R,3S,5R)-3-(5-(4′-(2-((1R,3S,5R)-2-(((methoxycarbonyl)amino)(4-oxaspiro[2.5]oct-7-yl)acetyl)-2-azabicyclo[3.1.0]hex-3-yl)-1H-imidazol-5-yl)biphenyl-4-yl)-1H-imidazol-2-yl)-2-azabicyclo[3.1.0]hex-2-yl)-3-methyl-1-oxobutan-2-yl)carbamate]	0.00501 to 0.1 nM
COC(=O)NC(C(=O)N1C(c2nc(-c3ccc(-c4ccc(-c5c[nH]c([C@@H]6CC[C@H](C)N6C(=O)C(NC(=O)OC)C6CCC7(CC7)OC6)n5)cc4)cc3)c[nH]2)CC[C@@H]1C)C1CCC2(CC2)OC1 (stereo partly drawn) [Example 1.1]	0.00501 to 0.1 nM
COC(=O)N[C@H](C(=O)N1C[C@H](CC2CC2)C[C@H]1c1nc(-c2ccc(-c3ccc(-c4c[nH]c([C@@H]5C[C@@H](CC6CC6)CN5C(=O)[C@@H](NC(=O)OC)C5C[C@@H](C)O[C@H](C)C5)n4)cc3)cc2)c[nH]1)C1C[C@@H](C)O[C@H](C)C1 (stereo partly drawn) [Example JLR-2.0, dimethyl (4,4′-biphenyldiylbis(1H-imidazole-4,2-diyl((2S,4R)-4-(cyclopropylmethyl)-2,1-pyrrolidinediyl)((1S)-1-((2R,6R)-2,6-dimethyltetrahydro-2H-pyran-4-yl)-2-oxo-2,1-ethanediyl)))biscarbamate]	0.00501 to 0.1 nM
C#C[C@@H]1CC[C@@H](c2ncc(-c3ccc(-c4ccc(-c5cnc([C@@H]6CC[C@@H](C#C)N6C(=O)[C@@H](NC(=O)OC)C6C[C@@H](C)O[C@H](C)C6)[nH]5)cc4)cc3)[nH]2)N1C(=O)[C@@H](NC(=O)OC)C1C[C@@H](C)O[C@H](C)C1 (stereo partly drawn) [Example 10.1, dimethyl (4,4′-biphenyldiylbis(1H-imidazole-4,2-diyl((2S,5S)-5-ethynyl-2,1-pyrrolidinediyl)((1S)-1-((2R,6R)-2,6-dimethyltetrahydro-2H-pyran-4-yl)-2-oxo-2,1-ethanediyl)))biscarbamate]	0.1 to 0.9 nM
COC(=O)N[C@H](C(=O)N1[C@@H](C)CC[C@H]1c1nc(-c2ccc(-c3ccc(-c4c[nH]c([C@@H]5CC[C@H](C)N5C(=O)[C@@H](NC(=O)OC)C56CC(C(F)(F)F)(C5)C6)n4)cc3)cc2)c[nH]1)C12CC(C(F)(F)F)(C1)C2 [OL12, dimethyl (4,4′-biphenyldiylbis(1H-imidazole-4,2-diyl((2S,5S)-5-methyl-2,1-pyrrolidinediyl)((1S)-2-oxo-1-(3-(trifluoromethyl)bicyclo [1.1.1]pent-1-yl)-2,1-ethanediyl)))biscarbamate]	0.1 to 0.9 nM

Reference: patent US9561212B2, “Hepatitis C virus inhibitors” (BRISTOL-MYERS SQUIBB COMPANY, priority 2012, dated 2017)
